# Read-outs that look alike come from different tables or passages of the source.
# Columns and labels:
# [1] = Fraction unbound by equilibrium dialysis; type: in vitro ADME; settings: pH 7.4
# Procedure: The fraction unbound (fu) ([Masimirembwa et al., 2003]) of the test compounds was determined after incubation with different media, namely, plasma, microsomes, and buffer with 10% FCS. Equilibrium dialysis was performed in a 96-well plate (HT-Dialysis, Gales Ferry, CT) in which each well was divided by a semipermeable membrane (12–14 kDa cutoff). The test compounds diluted in either plasma, microsome suspension, or buffer were added to one side of the membrane. Potassium phosphate buffer (50 mM, pH 7.4) was added to the other side of the membrane. A standard curve was used to calculate the compound concentration (fu) on each side of the membrane. Stock solutions of each compound were prepared in 100% DMSO to obtain a final concentration of 1 mM. The following compound concentrations were used: 1, 2, 20, 200, 2,000 and 5,000 nM. To 500 μl of medium, 0.5 μl of the compound stock solution was added, and this was applied to one side of the well. Each compound was evaluated in triplicate. Next, the plate was assembled, sealed, and incubated at 37°C under rotation (150 rpm) for 4 h. After the incubation period, the plates were subjected to LC-MS/MS.
# [2] = Experimental distribution coefficient (eLogD) by LC retention time; type: physicochemical; settings: for chromatographic logD: C18 column (LC retention time); for eLogD: Table S5
# Procedure: For the eLogD assays ([Waring, 2010]), each compound (5 μl) from a 5 mM stock solution was diluted in 245 μl of a solution containing buffers A (5% MeOH, 10 mM ammonium acetate, pH 7.4) and B (100% MeOH, pH 7.4) (50:50). Nine control compounds with known eLogD and column retention times (acyclovir, atenolol, antipyrine, fluconazole, metoprolol, carbamazepine, ketoconazole, tolnaftate, and amiodarone; eLogD values ranging from −1.86 to 6.1) were subjected to LC-MS/MS in triplicate before and after the analysis of the test compounds. Retention times were recorded for each control and test compound in a C18 column. The retention time of each control compound was plotted against the respective eLogD values described in the literature ([Lombardo et al., 2002]; [Lombardo et al., 2004]; [Alelyunas et al., 2010]). The resulting linear equation (y = mx + b) was used to calculate the eLogD values of the test compounds, in which x is the retention time in minutes and y is the eLogD value.
# [3] = In vitro metabolic stability in human liver microsomes; type: in vitro ADME; settings: human, liver microsomes
# Procedure: Isolated mouse (BD Gentest, Bedford, MA) and human liver microsomes (XenoTech, Kansas City, KS) ([Plant, 2004]) were added at a final concentration of 0.25 mg/ml to a solution containing 40 mM dibasic potassium phosphate and 10 mM monobasic potassium phosphate. Stock solutions of compounds at 5 mM were prepared in 100% DMSO. A 50:50 quenching solution of acetonitrile (ACN) and methanol (MeOH) was prepared. An NADPH solution was prepared at 10 mM. The preparations containing the microsomes were added to each well of the incubation plate (450 µl), which was then heated to 37°C for 10 min. The compounds were added to the respective wells of the test plate (2 µl). Then, 300 µl of the microsome preparation was added to each well of the test plate. The test plate was heated under gentle rotation for 5 min at 37°C. Next, 90 µl of the mixture contained in the test plate was added to the incubation plate, making a final volume of 540 µl. Samples were collected at the following incubation times: 0, 5, 10, 15, 20, and 30 min. To the 0 min sample plate, quenching solution (180 µl), NADPH (6 µl), and the incubation plate mixture (54 µl) were added to each well. The sample plate was then sealed, homogenized, and stored at 4°C. Then, 54 µl of the NADPH solution was added to the incubation plate, which was homogenized. Before the collection of each sample at the established times, 45 µl of the quenching solution was added to each well of the corresponding sample plates. After reaching the incubation times, 60 µl of the mixture contained in the incubation plate was added to the corresponding sample plates. The sample plates were then sealed and stored at 4°C. After the collection of the last sample (30 min), all sample plates were centrifuged at 3,800 rpm for 30 min. The supernatant from each well was collected and transferred to clean plates for mass spectrometry. Five to 10 µl of each sample was injected into an AB Sciex Triple Quad 5500 LC-MS/MS instrument.
# For the biotransformation experiments and analysis of metabolites in microsomes, an Ultra-High-Pressure Liquid Chromatography instrument (UHPLC, Thermo Accela, Waltham, MA) ([Spaggiari et al., 2014]) connected to an automatic sample injector and a 1250 series pump was used. The UHPLC system was connected to a Thermo Fisher (Waltham, MA) LTQ Orbitrap mass spectrometer. For all other analyses, an AB Sciex Triple Quad 5500 coupled to a UHPLC equipped with a UV 1290 diode detector (Agilent Technologies, Santa Clara, CA) and a CTC PAL self-collecting system (LEAP Technologies, Carrboro, NC) was used. Q1 MS positive ion mode (300–500 Da) was used to detect the ions of the parent compounds. The UV detector was operated in spectral mode (250–280 nm). A Hypersil Gold C18 (2.1 mm × 100 mm, 1.9 µm, Thermo Fisher) HPLC column was used. The mobile phases were solvent A (0.1% formic acid in water) and solvent B (0.1% formic acid in ACN). The flow was adjusted to 0.55 ml/min, and the injection volume was adjusted to […]. The gradient started with 1% solvent B for 0.4 min, reached 40% (solvent B) in 2.3 min and 95% (solvent B) in 0.67 min, was maintained for 0.5 min, and returned to the initial condition of 1%. This condition was maintained for 1 min before injection of the next sample. The peak area ratio (peak area of the test compounds/peak area of the control compounds) was converted to the percentage of remaining compound, with the 0 min time point ratio set to 100%. T½ and CLint were calculated from the percentage of remaining compound versus the incubation time. From the resulting function, the slope (k) was determined. The equations T1/2 (min) = ln(2)/k and CLint in vitro (μL/min/mg) = k*1000/0.25 were used to determine T½ and CLint.
# [4] = Table S6, fraction unbound used to correct plasma clearance
# [5] = Table S5, CLint/fu, read-out: CLint_u (L/h/kg) Human (converted)
# [6] = Table S5, read-out: CLint (L/h/kg) Human (converted)
# [7] = Table 5, fraction unbound used to correct CLint
# [8] = Table 6, fraction unbound used to correct plasma clearance
# [9] = Table 5, CLint/fu, read-out: CLint_u (L/h/kg) human (converted)
# [10] = Table 5, read-out: CLint (L/h/kg) human (converted)
compound,measurement,setting,value
NC(=O)Cn1c(CCNC(=O)COc2ccccc2)nc2ccccc21 [Compound 28],"fraction unbound at 4 h, 1 µM","[1]; Table S5, fraction unbound",0.98
same,"fraction unbound at 4 h, 1 µM",[1]; [4],0.18
same,chromatographic logD,"[2]; pH 7.4, Table 3, pH 7.4",2.16
same,eLogD,[2],2.16
same,CLint scaled at 5 µM,[3]; [5],< 1.53 L/h/kg
same,CLint scaled at 5 µM,[3]; [6],< 1.5 L/h/kg
CC(=O)Nc1ccc(OCC(=O)NCCc2nc3ccccc3[nH]2)cc1 [Compound 2],"fraction unbound at 4 h, 1 µM","[1]; Table S5, fraction unbound",1
same,"fraction unbound at 4 h, 1 µM",[1]; [4],0.49
same,chromatographic logD,"[2]; pH 7.4, Table 3, pH 7.4",1.92
same,eLogD,[2],1.92
same,CLint scaled at 5 µM,[3]; [5],< 1.5 L/h/kg
same,CLint scaled at 5 µM,[3]; [6],< 1.5 L/h/kg
O=C(COc1ccccc1)NCCc1nc2ccccc2n1CCOCc1ccccc1 [Compound 21],"fraction unbound at 4 h, 1 µM","[1]; Table S5, fraction unbound",0.47
same,chromatographic logD,"[2]; pH 7.4, Table S5",4.24
same,CLint scaled at 5 µM,[3]; [5],496 L/h/kg
same,CLint scaled at 5 µM,[3]; [6],235 L/h/kg
O=C(COc1cccc(NC(=O)CCCO)c1)NCCc1nc2ccccc2[nH]1 [Compound 7],"fraction unbound at 4 h, 1 µM","[1]; Table S5, fraction unbound",1
same,chromatographic logD,"[2]; pH 7.4, Table S5",2.23
same,CLint scaled at 5 µM,[3]; [5],< 1.5 L/h/kg
O=C(COc1ccc2c(C(=O)O)cccc2c1)NCCc1nc2ccccc2[nH]1 [Compound 15],"fraction unbound at 4 h, 1 µM","[1]; Table S5, fraction unbound",1
same,chromatographic logD,"[2]; pH 7.4, Table S5",1.31
same,CLint scaled at 5 µM,[3]; [5],< 1.5 L/h/kg
same,CLint scaled at 5 µM,[3]; [6],< 1.5 L/h/kg
O=C(COc1ccccc1)NCCc1nc2ccccc2n1-c1ccccc1 [Compound 30],"fraction unbound at 4 h, 1 µM","[1]; Table S5, fraction unbound",0.63
same,chromatographic logD,"[2]; pH 7.4, Table S5",4.04
same,CLint scaled at 5 µM,[3]; [5],92.4 L/h/kg
same,CLint scaled at 5 µM,[3]; [6],58.1 L/h/kg
O=C(COc1ccccc1[N+](=O)[O-])NCCc1nc2ccccc2[nH]1 [Compound 32],"fraction unbound at 4 h, 1 µM",[1]; [7],0.7
same,"fraction unbound at 4 h, 1 µM",[1]; [8],0.04
same,chromatographic logD,"[2]; pH 7.4, Table 5",3.6
same,CLint scaled at 5 µM,[3]; [9],39.2 L/h/kg
same,CLint scaled at 5 µM,[3]; [10],25.5 L/h/kg
Cc1ccccc1OCC(=O)NCCc1nc2ccccc2n1CCOc1ccccc1Br [Compound 22],"fraction unbound at 4 h, 1 µM","[1]; Table S5, fraction unbound",0.03
same,chromatographic logD,"[2]; pH 7.4, Table S5",4.81
same,CLint scaled at 5 µM,[3]; [5],3870 L/h/kg
same,CLint scaled at 5 µM,[3]; [6],123 L/h/kg
C=CCCn1c(CCNC(=O)COc2ccccc2)nc2ccccc21 [Compound 27],"fraction unbound at 4 h, 1 µM","[1]; Table S5, fraction unbound",0.86
same,chromatographic logD,"[2]; pH 7.4, Table 3, pH 7.4",3.75
same,eLogD,[2],3.75
same,CLint scaled at 5 µM,[3]; [5],70.2 L/h/kg
same,CLint scaled at 5 µM,[3]; [6],60.4 L/h/kg
COCCn1c(CCNC(=O)COc2ccccc2)nc2ccccc21 [Compound 29],"fraction unbound at 4 h, 1 µM","[1]; Table S5, fraction unbound",1
same,chromatographic logD,"[2]; pH 7.4, Table S5",3.13
same,CLint scaled at 5 µM,[3]; [5],23 L/h/kg
same,CLint scaled at 5 µM,[3]; [6],23 L/h/kg
O=C(COc1ccc(N2C(=O)CCC2=O)cc1)NCCc1nc2ccccc2[nH]1 [Compound 4],"fraction unbound at 4 h, 1 µM","[1]; Table S5, fraction unbound",0.99
same,chromatographic logD,"[2]; pH 7.4, Table S5",1.59
same,CLint scaled at 5 µM,[3]; [5],< 1.51 L/h/kg
same,CLint scaled at 5 µM,[3]; [6],< 1.5 L/h/kg
O=C(COc1ccc(NC(=O)CCCO)cc1)NCCc1nc2ccccc2[nH]1 [Compound 5],"fraction unbound at 4 h, 1 µM","[1]; Table S5, fraction unbound",0.96
same,chromatographic logD,"[2]; pH 7.4, Table S5",1.83
same,CLint scaled at 5 µM,[3]; [5],1.53 L/h/kg
same,CLint scaled at 5 µM,[3]; [6],1.5 L/h/kg
O=C(COc1ccc2ccccc2c1Br)NCCc1nc2ccccc2[nH]1 [Compound 34],"fraction unbound at 4 h, 1 µM",[1]; [7],0.1
same,chromatographic logD,"[2]; pH 7.4, Table 5",4.4
same,CLint scaled at 5 µM,[3]; [9],540 L/h/kg
same,CLint scaled at 5 µM,[3]; [10],49.9 L/h/kg
Cc1ccccc1OCC(=O)NCCc1nc2ccccc2o1 [Compound 37],"fraction unbound at 4 h, 1 µM",[1]; [7],0.9
same,"fraction unbound at 4 h, 1 µM",[1]; [8],0.05
same,chromatographic logD,"[2]; pH 7.4, Table 5",3.9
same,CLint scaled at 5 µM,[3]; [9],26.9 L/h/kg
same,CLint scaled at 5 µM,[3]; [10],22.9 L/h/kg
O=C(COc1ccccc1Br)NCCc1nc2ccccc2[nH]1 [Compound 18],"fraction unbound at 4 h, 1 µM",[1]; [7],0.6
same,"fraction unbound at 4 h, 1 µM",[1]; [8],0.03
same,chromatographic logD,"[2]; pH 7.4, Table 5",3.9
same,CLint scaled at 5 µM,[3]; [9],16 L/h/kg
same,CLint scaled at 5 µM,[3]; [10],9.2 L/h/kg
O=C(COc1cccc([N+](=O)[O-])c1)NCCc1nc2ccccc2[nH]1 [Compound 8],"fraction unbound at 4 h, 1 µM","[1]; Table S5, fraction unbound",1
same,"fraction unbound at 4 h, 1 µM",[1]; [4],0.14
same,chromatographic logD,"[2]; pH 7.4, Table 3, pH 7.4",2.98
same,eLogD,[2],2.98
same,CLint scaled at 5 µM,[3]; [5],6.58 L/h/kg
same,CLint scaled at 5 µM,[3]; [6],6.58 L/h/kg
COc1ccc2cc(OCC(=O)NCCc3nc4ccccc4[nH]3)ccc2c1 [Compound 12],chromatographic logD,"[2]; pH 7.4, Table 3, pH 7.4",3.89
same,eLogD,[2],3.89
same,CLint scaled at 5 µM,[3]; [5],233 L/h/kg
same,CLint scaled at 5 µM,[3]; [6],25.6 L/h/kg

# From publication PMC8767159, “Multiparameter Optimization of Trypanocidal Cruzain Inhibitors With In Vivo Activity and Favorable Pharmacokinetics” (Frontiers in Pharmacology, 2022)
